Laboratory results from US11623931B2, “Bicyclic compounds for diagnosis and therapy” (AC IMMUNE SA, priority 2016, dated 2023).

Assays:
Design in all cases: key: − (No); +/− (very weak); + (weak); ++ (good); +++ (strong)
[1] = system: Aβ plaques on AD sections; assay: Assay 1 (fluorescence based assay): direct staining of human Alzheimer's disease brain sections; format: binding; conditions: staining intensity; compound 100 μM, frozen amygdala sections, AD Braak stage V-VI
Procedure: Direct Staining of Compounds of this Invention to Human Alzheimer's Disease Brain Sections 20 μm frozen sections from amygdala were purchased from an external provider (Tissue Solutions Ltd.). Donors were diagnosed with AD, Braak stage V-VI (Braak et al., Neurobiol. Aging, 1995, 16, 271-284) and thus with confirmed Aβ pathology. Sections were kept at −80° C. until start of the experiment. Brain sections were encircled with pap pen liquid blocker to reduce the volume of solution for the different incubations. Sections were fixed for 15 min at 4° C. with 4% paraformaldehyde and washed three times for 5 minutes with PBS at room temperature. Test compounds were incubated on the sections at 100 μM in 50% ethanol in water for 30 min at room temperature, followed by three washes of 5 minutes with PBS. Sections were then saturated and permeabilized in blocking buffer (PBS, 10% NGS, 0.25% Triton) for 1 hour at room temperature and then incubated for 2 hours at room temperature with the primary antibodies against AR, 4G8, (Covance, SIG-39220), diluted 1/250 in PBS, 5% NGS, and 0.25% Triton. After three washes in PBS, the sections were incubated for 30 minutes at room temperature with a secondary anti-mouse antibody labeled with AlexaFluor555 (Invitrogen A21422) and further washed three times in PBS. To reduce auto-fluorescence of the tissue, the sections were incubated in a solution of 0.1% Sudan Black (Sigma 199664) in 70% ethanol for 15 min at room temperature, followed by four washes with PBS and mounted under cover slips using ProLong Gold Antifade reagent (Invitrogen P36930). Sections were analyzed on the Nikon Eclipse Ti microscope to detect staining and imaged using Nikon DS-Fi2 camera and NIS-Element AR4.13.1 software.

[2] = target: T1, aSyn aggregates on PD sections (Homo sapiens, UniProt P37840); assay: Assay 1 (fluorescence based assay): direct staining of human Parkinson's disease brain sections; format: binding; conditions: staining intensity; compound 100 μM, frozen amygdala sections, PD Braak stage V-VI
T1 construct: 20 μm frozen sections from amygdala were purchased from an external provider (Tissue Solutions Ltd.); tissue Tissue Solutions Ltd; host or cells: human PD amygdala, frozen sections, Braak stage V-VI
Excerpt: Assay 1 (Fluorescence Based Assay):
(§1) Direct Staining of Compounds of this Invention to Human Parkinson's Disease Brain Sections
(§2) 20 μm frozen sections from amygdala were purchased from an external provider (Tissue Solutions Ltd.). Donors were diagnosed with PD, Braak stage V-VI (Braak et al., Neurobiol. Aging, 2003, 24, 197-211) and thus with confirmed aSyn pathology. PD donors, Braak stage V-VI with mixed pathology, containing aSyn aggregates as well as Aβ plaques, were also used in this assay. Sections were kept at −80° C. until start of the experiment.
(§3) Brain sections were encircled with pap pen liquid blocker to reduce the volume of solution for the different incubations. Sections were fixed for 15 min at 4° C. with 4% paraformaldehyde and washed three times for 5 minutes with PBS (phosphate buffered saline) at room temperature. Test compounds were incubated on the sections at 100 μM in 50% ethanol in water for 30 min at room temperature, followed by three washes of 5 minutes with PBS. Sections were then saturated and permeabilized in blocking buffer (PBS, 10% NGS, 0.25% Triton) for 1 hour at room temperature and then incubated for 2 hours at room temperature with the primary antibodies against aSyn: aSyn-211 (SantaCruz Biotechnology sc-12767) or aSyn-pS129 (Abcam AB51253), and primary antibody against AR, 4G8, (Covance, SIG-39220). All primary antibodies diluted 1/250 in PBS, 5% NGS, 0.25% Triton. After three washes in PBS, the sections were incubated for 30 minutes at room temperature with a secondary anti-mouse antibody labeled with AlexaFluor555 (Invitrogen A21422) or anti-rabbit antibody labeled with AlexaFluor555 (Invitrogen A21428) and further washed three times in PBS. To reduce auto-fluorescence of the tissue, the sections were incubated in a solution of 0.1% Sudan Black (Sigma 199664) in 70% ethanol for 15 min at room temperature, followed by four washes with PBS and mounted under cover slips using ProLong Gold Antifade reagent (Invitrogen P36930).
(§4) Sections were analyzed on the Nikon Eclipse Ti microscope to detect staining and imaged using Nikon DS-Fi2 camera and NIS-Element AR4.13.1 software.

[3] = system: Aβ plaques on PD sections with mixed pathology; assay: Assay 1 (fluorescence based assay): direct staining of PD brain sections with mixed pathology; format: binding, human; conditions: staining intensity; compound 100 μM, frozen amygdala sections, PD Braak stage V-VI with aSyn aggregates and Aβ plaques
Procedure: as §1, §2, §3, §4

In the case of `FCCNc1ccc(-c2ccc3cc(-c4cccnc4)sc3n2)cn1` [Example 56], the “Staining of Aβ plaques on AD sections” value [1] is reported as “++” and the “Staining of aSyn aggregates on PD sections” value (from here on “Staining of aSyn aggregates”) [2] is reported as “++”.

In the case of `CN(CCF)c1ccc(-c2ccc3cc(-c4cccnc4)sc3n2)cn1` [Example 57], the “Staining of Aβ plaques on AD sections” value [1] is reported as “+” and the “Staining of aSyn aggregates” value [2] is reported as “++”.

With `FCCOc1ccc(-c2cc3ccc(Nc4ccc5c(c4)OCCO5)nc3s2)cc1` [Example 58] the “Staining of Aβ plaques on AD sections” value [1] was “++” and the “Staining of aSyn aggregates” value [2] was “+”.

`FCCOc1cccc(Nc2ccc3cc(-c4cccnc4)sc3n2)c1` [Example 59] was tested, and the “Staining of Aβ plaques on AD sections” value [1] was “+” and the “Staining of aSyn aggregates” value [2] was “+”.

With `FCCOc1ccc(Nc2ccc3cc(-c4cccnc4)sc3n2)cc1` [Example 63] the “Staining of Aβ plaques on AD sections” value [1] was “++” and the “Staining of aSyn aggregates” value [2] was “++”.

`c1cncc(-c2cc3ccc(Nc4ccc5c(c4)OCCO5)nc3s2)c1` [Example 64] was tested, and the “Staining of Aβ plaques on AD sections” value [1] was “+++” and the “Staining of aSyn aggregates” value [2] was “+”.

`c1cncc(-c2cc3ccc(Nc4ccc(N5CCOCC5)cc4)nc3s2)c1` [Example 65] was tested, and the “Staining of Aβ plaques on AD sections” value [1] was “+++” and the “Staining of aSyn aggregates” value [2] was “+”.

For `c1cncc(-c2cc3ccc(Nc4ccc(N5CCOCC5)nc4)nc3s2)c1` [Example 66], the “Staining of Aβ plaques on AD sections” value [1] was “++” and the “Staining of aSyn aggregates” value [2] was “+”.

In the case of `FCCOC1CCN(c2ccc3cc(-c4cccnc4)sc3n2)CC1` [Example 67], the “Staining of Aβ plaques on AD sections” value [1] is reported as “+” and the “Staining of aSyn aggregates” value [2] is reported as “+”.

With `FCCOC1CCN(c2cc3nc(-c4ccc(N5CCCC5)nc4)sc3cn2)CC1` [Example 68] the “Staining of Aβ plaques on AD sections” value [1] was “−” and the “Staining of aSyn aggregates” value [2] was “+”.

`CN1CCN(c2ccc3nc(-c4ccc(N5CCCC5)nc4)sc3c2)C(=O)C1` [Example 69] was tested, and the “Staining of Aβ plaques on AD sections” value [1] was “+” and the “Staining of aSyn aggregates” value [2] was “++”.

For `CN1CCN(c2ccc3nc(-c4ccc(N5CC[C@@H](F)C5)nc4)sc3c2)C(=O)C1` [Example 70], the “Staining of Aβ plaques on AD sections” value [1] was “+” and the “Staining of aSyn aggregates” value [2] was “+”.

`CN1CCN(c2ccc3nc(-c4ccc(N5CC[C@H](F)C5)nc4)sc3c2)C(=O)C1` [Example 71] was tested, and the “Staining of Aβ plaques on AD sections” value [1] was “−” and the “Staining of aSyn aggregates” value [2] was “+”.

With `O=C1COCCN1c1ccc2nc(-c3ccc(N4CC[C@@H](F)C4)nc3)sc2c1` [Example 72] the “Staining of Aβ plaques on AD sections” value [1] was “+” and the “Staining of aSyn aggregates” value [2] was “+++”.

For `O=C1COCCN1c1ccc2nc(-c3ccc(N4CC[C@H](F)C4)nc3)sc2c1` [Example 73], the “Staining of Aβ plaques on AD sections” value [1] was “+” and the “Staining of aSyn aggregates” value [2] was “++”.

In the case of `CNc1ccc(-c2cc3ccc(Nc4ccc(OCCF)cc4)nc3s2)cc1` [Example 74], the “Staining of Aβ plaques on AD sections” value [1] is reported as “+++” and the “Staining of aSyn aggregates” value [2] is reported as “+”.

With `CNc1ccc(-c2cc3ccc(Nc4ccc5c(c4)OCCO5)nc3s2)cc1` [Example 75] the “Staining of Aβ plaques on AD sections” value [1] was “+++” and the “Staining of aSyn aggregates” value [2] was “++”.

`CNc1ccc(-c2cc3ccc(Nc4ccc(N5CCOCC5)cc4)nc3s2)cc1` [Example 76] was tested, and the “Staining of Aβ plaques on AD sections” value [1] was “+++” and the “Staining of aSyn aggregates” value [2] was “+”.

`COc1ccc(C#Cc2ccc3cc(-c4cccnc4)sc3n2)cc1` [Example 77] was tested, and the “Staining of Aβ plaques on AD sections” value [1] was “++” and the “Staining of aSyn aggregates” value [2] was “++”.

In the case of `O=C1c2sc(-c3ccc(N4CCCC4)nc3)nc2CCN1CCF` [Example 78], the “Staining of Aβ plaques on AD sections” value [1] is reported as “+” and the “Staining of aSyn aggregates” value [2] is reported as “+”.

`FCCn1cc(-c2cc3nc(-c4ccc(N5CCCC5)nc4)sc3cn2)cn1` [Example 79] was tested, and the “Staining of Aβ plaques on AD sections” value [1] was “+” and the “Staining of aSyn aggregates” value [2] was “+”.

In the case of `O=C1c2sc(-c3ccc(N4CCCC4)nc3)nc2CCN1c1cccnc1` [Example 80], the “Staining of Aβ plaques on AD sections” value [1] is reported as “++” and the “Staining of aSyn aggregates” value [2] is reported as “+++”.

For `F[C@H]1CCCN(c2ccc(-c3nc4nc(-c5cn[nH]c5)ccc4s3)cn2)C1` [Example 83], the “Staining of aSyn aggregates” value [2] was “+++” and the “Staining of Aβ plaques on PD sections with mixed pathology” value (from here on “Staining … with mixed pathology”) [3] was “−”.

`Cn1cc(-c2ccc3sc(-c4ccc(N5CCC[C@H](F)C5)nc4)nc3n2)cn1` [Example 84] was tested, and the “Staining of aSyn aggregates” value [2] was “++” and the “Staining … with mixed pathology” value [3] was “+/−”.

`Fc1nc(N2CCCC2)ccc1-c1nc2nc(-c3cn[nH]c3)ccc2s1` [Example 85] was tested, and the “Staining of aSyn aggregates” value [2] was “+++” and the “Staining … with mixed pathology” value [3] was “−”.

For `Cn1cc(-c2ccc3sc(-c4ccc(N5CCCC5)nc4F)nc3n2)cn1` [Example 86], the “Staining of aSyn aggregates” value [2] was “++” and the “Staining … with mixed pathology” value [3] was “−”.

In the case of `Fc1nc(N2CCCC2)ccc1-c1nc2nc(-c3cccnc3)ccc2s1` [Example 87], the “Staining of aSyn aggregates” value [2] is reported as “++” and the “Staining … with mixed pathology” value [3] is reported as “−”.

`Cc1n[nH]c(C)c1-c1ccc2sc(-c3ccc(N4CCCC4)nc3F)nc2n1` [Example 88] was tested, and the “Staining of aSyn aggregates” value [2] was “+++” and the “Staining … with mixed pathology” value [3] was “−”.

`c1cncc(-c2ccc3sc(-c4ccc(N5CCCC5)nc4)nc3n2)c1` [Example 89] was tested, and the “Staining of aSyn aggregates” value [2] was “++” and the “Staining … with mixed pathology” value [3] was “−”.

For `F[C@@H]1CCN(c2ccc(-c3nc4nc(-c5cccnc5)ccc4s3)cn2)C1` [Example 90], the “Staining of aSyn aggregates” value [2] was “++” and the “Staining … with mixed pathology” value [3] was “−”.

With `F[C@H]1CCN(c2ccc(-c3nc4nc(-c5cccnc5)ccc4s3)cn2)C1` [Example 91] the “Staining of aSyn aggregates” value [2] was “++” and the “Staining … with mixed pathology” value [3] was “−”.

With `Cn1cncc1-c1ccc2sc(-c3ccc(N4CCCC4)nc3F)nc2n1` [Example 94] the “Staining of aSyn aggregates” value [2] was “+++” and the “Staining … with mixed pathology” value [3] was “−”.

In the case of `Fc1nc(N2CCCC2)ccc1-c1nc2nc(-c3cnc[nH]3)ccc2s1` [Example 95], the “Staining of aSyn aggregates” value [2] is reported as “++” and the “Staining … with mixed pathology” value [3] is reported as “−”.

With `Fc1nc(N2CCCC2)ccc1-c1nc2nc(-c3cc[nH]c3)ccc2s1` [Example 96] the “Staining of aSyn aggregates” value [2] was “++” and the “Staining … with mixed pathology” value [3] was “+/−”.

`Cn1nccc1-c1ccc2sc(-c3ccc(N4CCCC4)nc3F)nc2n1` [Example 97] was tested, and the “Staining of aSyn aggregates” value [2] was “+” and the “Staining … with mixed pathology” value [3] was “+/−”.

With `F[C@H]1CCCN(c2ccc(-c3nc4nc(-c5cncs5)ccc4s3)cn2)C1` [Example 98] the “Staining of aSyn aggregates” value [2] was “+” and the “Staining … with mixed pathology” value [3] was “+/−”.

With `F[C@@H]1CCCN(c2ccc(-c3nc4nc(-c5cncs5)ccc4s3)cn2)C1` [Example 99] the “Staining of aSyn aggregates” value [2] was “++” and the “Staining … with mixed pathology” value [3] was “+/−”.

With `F[C@@H]1CCCN(c2ccc(-c3nc4ncc(-c5cccnc5)cc4s3)cn2)C1` [Example 100] the “Staining of aSyn aggregates” value [2] was “++” and the “Staining … with mixed pathology” value [3] was “++”.

For `O=C1COCCN1c1ccc2nc(-c3ccc(N4CCC[C@@H](F)C4)nc3)sc2c1` [Example 126], the “Staining of Aβ plaques on AD sections” value [1] was “++” and the “Staining of aSyn aggregates” value [2] was “++”.

`O=C1COCCN1c1ccc2nc(-c3ccc(N4CCC[C@H](F)C4)nc3)sc2c1` [Example 127] was tested, and the “Staining of Aβ plaques on AD sections” value [1] was “+” and the “Staining of aSyn aggregates” value [2] was “++”.
